pEC50: −log10 of the molar value.
Assays:
[1] = NOVARTIS: Cytotoxicity against human hepatocellular carcinoma cell line (Huh7); format: toxicity, cell-based, Huh-7; details: Huh7 cells (hepatocellular carcinoma cell line)
Plasmodium falciparum [2] = assay: NOVARTIS: Inhibition of Plasmodium falciparum 3D7 (drug-susceptible) proliferation in erythrocyte-based infection assay; format: functional, organism-based; details: Plasmodium falciparum, 3D7
Plasmodium falciparum [3] = assay: NOVARTIS: Inhibition of Plasmodium falciparum W2 (drug-resistant) proliferation in erythrocyte-based infection assay; format: functional, organism-based; details: Plasmodium falciparum, W2; read-out: EC50

| SMILES | CC50 [1] | pEC50 (Plasmodium falciparum [2]) | pEC50 (Plasmodium falciparum [3]) |
| --- | --- | --- | --- |
| Cc1ccc2nc(-c3ccc(O)cc3)oc2c1 | > 10000 nM | < 5.90 | < 6.20 |
| CCCCCCN(C(=O)c1ccc2ccccc2c1)C(CC)c1nc2ccccc2c(=O)n1-c1ccccc1OC (stereo not given) | > 10000 nM | 6.19 | 6.20 |
| Brc1ccc(C=Nc2ccc(-c3nc4cc(-c5ccc6[nH]c(-c7ccc(N=Cc8ccc(Br)cc8)cc7)nc6c5)ccc4[nH]3)cc2)cc1 | > 10000 nM | 6.23 | 6.19 |
| Cc1ccn2c(NC(C)(C)CC(C)(C)C)c(-c3ccccc3OC(=O)C(c3ccccc3)c3ccccc3)nc2c1 | > 1120 nM | 6.13 | 7.14 |
| CCNC(=O)[C@@H]1C[C@@H](NC2C3CC4CC(C3)CC2C4)CN1Cc1cccc(OC)c1OC (stereo not given in full) | 72200 nM | < 4.90 | 5.34 |
| CC(CC(=O)NCCCCNc1ccnc2cc(Cl)ccc12)CC(C)(C)C (stereo not given) | 4590 nM | 6.35 | 6.53 |
| CCOC(=O)CN1C(=O)c2ccccc2Sc2ncccc21 | > 10000 nM | < 5.95 | < 6.19 |
| Clc1ccc2c(NC3CCCCCCC3)ccnc2c1 | > 13700 nM | 5.98 | 6.06 |
| CC(=O)N1c2ccccc2CC1C(=O)NCc1cccc(Cl)c1 (stereo not given) | > 100000 nM | < 4.90 | < 5.19 |
| CC(=O)c1ccc(N2C(C)c3nc4ccccc4c(=O)n3C2c2cccc(O)c2)cc1 (stereo not given) | > 10000 nM | 5.98 | 6.19 |
| CCN(CC)CCN(Cc1cc2cc(OC)ccc2[nH]c1=O)C(=S)Nc1ccc(F)cc1 | 51400 nM | 5.68 | 5.48 |
| CN1CCN(c2c3c(c(C#N)c4nc5ccccc5n24)CCC3)CC1 | > 100000 nM | 5.93 | < 5.19 |
| NC(=O)c1ccc2c(c1)N=C(c1cccnc1)N(C1CC1)C2 | > 10000 nM | 5.89 | 6.19 |
| COc1ccc(-n2cc(-c3ccccc3)[n+]3c2SCC3)cc1 | > 10000 nM | 6.28 | 6.19 |
| COc1ccccc1-n1c(C=Cc2cc(Br)ccc2O)nc2ccccc2c1=O | 19400 nM | 5.68 | 5.91 |
| CC(C)CNC(=O)c1cnc(NCCCn2ccnc2)nc1Nc1ccccc1 | > 10000 nM | 6.20 | 6.19 |
| O=C(C1Cc2ccccc2CN1S(=O)(=O)c1ccc(F)cc1)N1CCOCC1 (stereo not given) | > 10000 nM | < 5.87 | 6.19 |
| COc1ccc(-c2noc(-c3cccc(I)c3)n2)cc1OC | > 13600 nM | < 5.76 | < 6.06 |
| CC1CCCCN1CCCNCc1ccc(OCc2ccccc2)cc1 (stereo not given) | 4650 nM | 6.41 | 6.53 |
| CSc1oc(C(C)(C)C)nc1[P+](c1ccccc1)(c1ccccc1)c1ccccc1 | 6820 nM | 6.53 | 6.36 |
| C=CCSc1nc(Sc2ccc(Cl)cc2)c2sc3ccccc3c2n1 | > 10000 nM | < 5.90 | < 6.19 |
| Cc1cccc(C)c1NC(=O)N1CCN(C(=O)c2nc(-c3ccccc3)nc(C)c2C(=O)OC(C)C)CC1C (stereo not given) | > 10000 nM | 6.10 | 6.19 |
| CC[n+]1c(/C=C/N(C)c2ccccc2)sc(-c2ccccc2)c1-c1ccccc1 | > 10000 nM | 5.96 | 6.20 |
| CCCn1c(C(CC)N2CCNCC2)nc2ccccc2c1=O (stereo not given) | > 10000 nM | 6.55 | 6.20 |
| CCC(/C=C1\Sc2ccc3ccccc3c2N1C)=C\c1sc2ccc3ccccc3c2[n+]1C | > 100000 nM | 5.58 | 5.20 |

| SMILES | CC50 [1] | pEC50 (Plasmodium falciparum [2]) | pEC50 (Plasmodium falciparum [3]) |
| --- | --- | --- | --- |
| COc1cc(OC)cc(N2CCN(CCNCCOc3ccccc3)[C@@H](c3ccccc3)C2)c1 | > 10000 nM | < 5.90 | < 6.20 |
| CC(=O)N1CCN(C(=O)CCCSc2nnc(-c3ccc(C)cc3)n2-c2cccc(C)c2)CC1C (stereo not given) | > 10000 nM | < 6.04 | < 6.20 |
| CC1Cc2ccc(F)cc2CN1C(=O)c1ccc(COc2ccccc2Br)o1 (stereo not given) | > 100000 nM | 5.08 | 5.20 |
| O=C(CSc1ccccc1)NCCCCNc1ccnc2cc(Cl)ccc12 | > 10000 nM | 6.31 | 6.20 |
| COC(CNc1cc(-c2ccccn2)nc(-c2ccccn2)n1)OC | > 10000 nM | 6.47 | 6.20 |
| COc1ccc(N2C(N)=NC(N)=NC23CCCC3)cc1 | > 100000 nM | 6.41 | 5.20 |
| O=C(Nc1ccccc1)C1Cc2ccccc2CN1S(=O)(=O)c1ccc(F)cc1 (stereo not given) | > 100000 nM | < 4.90 | 5.20 |
| CC1(C)CC(N=c2cc(-c3ccccc3)oc3ccc(Cl)cc23)CC(C)(C)N1 | 9600 nM | 6.60 | 6.22 |
| O=C1CCC(CCNCc2ccc(Cl)cc2)N1CC1(N2CCCCC2)CCCC1 (stereo not given) | > 10000 nM | < 5.90 | 6.20 |
| COc1ccccc1N1CCN(c2ccc(NC(=O)c3cccc(F)c3)cc2C(=O)N2CCCC2)CC1 | > 100000 nM | < 4.90 | 5.20 |
| CCCc1nc2ccc(NC(=O)NCC)cc2c(=O)n1Cc1ccc(-c2ccccc2)cc1 | > 100000 nM | 5.04 | 5.20 |
| CN(C(=O)CCNC(=O)Cn1cnc2ccccc2c1=O)C1CCCCC1 | > 10000 nM | < 5.90 | < 6.20 |
| CC(NS(=O)(=O)c1ccccc1)C(c1cccs1)N1CCN(c2ccccc2F)CC1 (stereo not given) | > 100000 nM | < 4.90 | 5.20 |
| CCOCc1nnc(NC(=O)COc2ccc(Cl)cc2Cl)s1 | > 100000 nM | < 4.90 | 5.19 |
| CCCN1CCC(N2C[C@@H](NC3CCCCCC3)C[C@H]2C(=O)NCCc2ccc3c(c2)OCO3)CC1 | > 13000 nM | 5.96 | < 6.08 |
| Cc1n[nH]c2c1C(c1ccc([N+](=O)[O-])cc1)N(c1ccc(Br)cc1)C2=O (stereo not given) | > 100000 nM | < 4.90 | < 5.20 |
| CCC(=O)N(C1=C(NC)C(=O)c2ccccc2C1=O)C(C)C | 563 nM | 8.05 | 7.44 |
| CC[n+]1c(C=Cc2ccc(Cl)cc2)ccc2ccccc21 | 19500 nM | 5.43 | 5.90 |
| CC1=NOC(=O)C1=Cc1ccc(-c2ccc([N+](=O)[O-])cc2)o1 | > 100000 nM | < 4.90 | 5.19 |
| CCCC1=NN(c2nc3ccccc3s2)C(=O)C1 | > 10000 nM | < 5.90 | < 6.19 |
| COc1ccc([C@]23Oc4cc(OC)cc(OC)c4[C@@]2(O)[C@@H](O)C(C(=O)N(C)C)[C@@H]3c2ccccc2)cc1 (stereo not given in full) | > 10000 nM | < 6.22 | 6.20 |
| COC(=O)C1=C(C)NC(=Cc2cc(C)n(-c3ccc(Cl)c(Cl)c3)c2C)C1=O | > 100000 nM | 5.16 | 5.20 |
| CSc1c(C(=O)Nc2ccc(Br)cc2)ccc2c1C(=O)c1ccccc1C2=O | > 10000 nM | < 5.90 | < 6.19 |
| CC(C)(C)c1ccc(/C=C/C(=O)NCc2ccco2)cc1 | > 10000 nM | 6.10 | 6.19 |
| Cc1cnc(CNc2cc(-c3ccccn3)nc(-c3ccccn3)n2)nc1 | > 10000 nM | 6.33 | 6.19 |
